Assay: Stability of the product during purification (sensitivity to methanol)
Type: physicochemical
Conditions: particularly at a pH below 6

CC=C(C)C=C(C)C1C(C)=CC2(C)CC(C)CCC2C1C(=O)C1=CC(O)(Cc2ccccc2)C(=O)N1 (stereo not shown) [Structural Formula I]
instability of the product / sensitivity to methanol: sensitivity to methanol particularly at a pH below 6

Reference: patent US5352800A, “Process for the production of a novel endothelin antagonist” (Merck & Co., Inc., priority 1993, dated 1994)
